Reference: patent US7786042B2, “Fluridone as an anti-inflammatory agent” (Universita' Degli Studi Di Genova, priority 2005, dated 2010)
“Also recorded” adds a separate entry of the source. Read-outs that look alike come from different tables or passages of the source.

Assays:
Assay type in all cases: cell-based
[1] = test system: murine microglia cell line N9; experiment: TNF-α release by murine microglia N9
Protocol: Confluent cell cultures from the murine microglia cell line N9 were pre-incubated in the presence or in the absence of 50 μM fluridone for 4 hours and then stimulated with 10 μM ABA or with 100 ng/ml lipopolysaccharide for 24 hours. The concentration of PGE2 (panel A) and of TNF-α (panel B) in the cell supernatant was measured as described under Materials and Methods. The results are expressed as release relative to control cultures in the absence of added stimuli and are the mean ±SD from 4 experiments.
(§1) The method used to assay TNF-α is based on the high sensitivity of the murine fibroblast cell line L929 to the toxic effect of this cytokine. Briefly, fibroblasts were seeded (3×10^4/well) in 96-well plates and after 24 h the medium was substituted with the supernatant of the cell cultures where the TNF-α content was to be estimated. In parallel, known amounts of the cytokine were added to other wells, in order to obtain a standard curve of toxicity. After 48 hours, MTT (0.05 mg/ml) was added to each well and after 3 hours incubation at 37° C. (during this time viable cells reduce the dye producing formazan crystals), the medium was removed, DMSO (200 μl/well) was added to dissolve the formazan crystals and the absorbance was recorded at 570 nm with a spectrophotometric plate reader. The TNF-α concentration in the culture supernatants was calculated by comparison of the percentage of viable cells in the treated wells with those containing known amounts of TNF-α (standard curve). The PGE2 release in the medium by stimulated inflammatory cells was measured by an immunoenzymatic assay kit, commercially available (PGE2 EIA-kit, Cayman Chemicals, Ann Arbor, Mich., USA).

human monocytes [2] = experiment: PGE2 production / COX-2 expression in human monocytes
Protocol: (§2) Human monocytes were pre-incubated with 50 μM fluridone (flu) for 2 hours and then stimulated with 10 μM ABA or with 100 ng/ml of lipopolysaccharide (LPS) for 6 hours. The concentration of PGE2 (panel A) and of TNF-α (panel B) in the cell supernatant was measured as described under Materials and Methods and compared with that of untreated cells (control). The results are the mean ±SD from 4 experiments.
as §1

human monocytes [3] = experiment: TNF-α release by human monocytes (L929 toxicity assay)
Protocol: as §2, §1

human granulocytes = experiment: NO release by granulocytes (nitrite, Griess)
Protocol: Granulocytes were resuspended at 5×10^6/ml in HBSS and 225 μl of the cell suspension were added to 50 μl of 0.2 mM cytochrome c and were incubated for 30 min at 37° C. in the absence (control) or in the presence of 250 nM or 20 μM ABA, the latter concentration without or with 1 mM EDTA, 20 mM nicotinamide or 0.1 mM 8-Br-cADPR. […] The results are expressed as the production relative to control cells, not stimulated with ABA, and are the mean ±SD from 5 experiments.

[4] = test system: murine macrophages RAW 264.7; experiment: PGE2 production by murine macrophages RAW 264.7
Protocol: (§3) Murine macrophages of the continuous cell line RAW 264.7 were pre-incubated with 50 μM fluridone (flu) for 2 hours and then stimulated with 10 μM ABA or with 100 ng/ml of lipopolysaccharide (LPS) for 6 hours. The concentration of PGE2 (panel A) or of TNF-α (panel B) in the cell supernatant was measured as described under Materials and Methods and was compared with that from untreated (control) cells. The results are the mean ±SD from 4 experiments.
as §1

[5] = test system: murine macrophages RAW 264.7; experiment: TNF-α production by murine macrophages RAW 264.7
Protocol: as §3, §1

human lymphocytes = experiment: Lymphocyte proliferation ([3H]-thymidine incorporation); settings: for inhibition at 50 µM: Homo sapiens, Lymphocyte, pre-incubation with fluridone 50 μM
Protocol: Low density mononuclear cells (lymphocytes and monocytes), isolated from peripheral blood, were incubated in triplicate (1.5×10^5/well) in 96-well plates in RPMI containing 20% autologous plasma in the absence (control) or in the presence of 50 μM fluridone for 18 hours. Phytohemagglutinin (PHA) (0.1 μg/ml) or phorbol myristate acetate (PMA) (0.1 μg/ml) were then added, with or without the simultaneous addition of ABA. After 72 hours, [^3H]-Thymidine (Amersham Biosciences, Uppsala, Sweden) was added to the cultures (0.2 μCi/well) and after 6 hours the incorporated radioactivity was evaluated by filtration of the cells on glass fiber filters (Whatman, Maidenstone, UK). Results are the mean ±SD from 3 experiments. In the absence of stimuli (PHA or PMA), no lymphocyte proliferation was observed.
Blood enriched in leukocytes (buffy coat), was provided by Galliera Hospital, Genova, Italy, upon informed consent of the volunteer donors. Lymphocytes, granulocytes and monocytes were isolated by density centrifugation through Ficoll-Paque (Amersham Biosciences, Uppsala, Sweden). Low-density mononuclear cells (including lymphocytes and monocytes) were collected at the plasma-Ficoll interphase and monocytes were further purified by adherence to plastic cell culture flasks. Granulocytes were isolated from high-density cells, sedimented under the Ficoll layer by hypotonic lysis of contaminating erythrocytes. All cell populations were then resuspended in RPMI 1640 medium (Sigma) containing penicillin (100 U/ml), streptomycin (100 μg/ml) and 20% autologous plasma. Culture conditions were as those described below for cell lines.

[6] = test system: murine microglia cell line N9; experiment: NO release by murine microglia N9
Protocol: The method used to determine NO released from the cells into the medium exploits the spontaneous conversion of NO to nitrates and the subsequent enzymatic reduction of nitrates to nitrites by the enzyme nitrate reductase. […] Granulocytes (60×10^6/well) or murine microglia cells N9 (2×10^5/well) were incubated in 24-well plates for 60 min at 37° C. in the presence of ABA at different concentrations. The supernatants were then centrifuged and diluted with an equal volume of Griess reagent (0.1% naphthyl-ethylenediamine dihydrochloride in distilled water, 1% sulphanylamide in 5% concentrated H3PO4). Absorbance at 545 nm was estimated after 10 min and the nitrite concentration was calculated using a standard curve, generated in parallel with known amounts of NaNO2.

human monocytes [7] = experiment: MCP-1 release from human monocytes
Protocol: Human monocytes were incubated for 6 hours with 10 μM ABA or with 100 ng/ml of lipopolysaccharide (LPS), in the presence or in the absence of fluridone (50 μM) and the MCP-1 concentration in the cell supernatant was immunoenzimatically measured, with a commercially available kit (R&D System, CA, USA). The results are the mean ±SD from 3 experiments.

[8] = test system: murine macrophages RAW 264.7; experiment: Cell viability by Trypan blue exclusion, RAW 264.7; settings: RAW 264.7, fluridone 50 μM
Text: (§4) A similar effect (90% inhibition) is produced by fluridone also on the LPS-induced TNF-α production in both cell types (FIGS. 7 A and B). In all these cases, no toxicity of fluridone on the cells was observed, as evaluated by the ability of excluding the dye Trypan blue.

[9] = test system: human lymphocytes and monocytes; experiment: Cell viability by Trypan blue exclusion, human cells; settings: fluridone 50 μM
Protocol: Inhibition of proliferation is not due to fluridone toxicity since the percentage of viable cells (excluding the dye Trypan blue) was similar in the cultures incubated with fluridone compared to controls.
as §4

[10] = exogenous ABA 10-20 μM added to fluridone-treated cultures

`CC1=CC(=O)CC(C)(C)[C@@]1(O)/C=C/C(C)=C\C(=O)O` (racemic) [ABA, (±)-cis, trans ABA] was tested. Which “release of TNF-α” value ([1]; ABA 0.2-20 μM) did it give?
Its value is “increase; also recorded: ↑TNF-α release”.

What about the “TNF-α release compromised by fluridone” value [1, 10] of the same compound?
The value was “partly restores”.

What about the “expression of cyclooxygenase 2 (COX-2), Western blot” value (human monocytes [2]; ABA 0.1-10 μM) of the same compound?
The value was “increased expression”.

What about the “production of prostaglandin E2 (PGE2)” value (human monocytes [2]; ABA 0.1-10 μM) of the same compound?
The value was “increased production”.

And the “Effects of ABA: COX-PGE2” value (human monocytes [2]; Added ABA 5-50 μM)?
Its value is “↑COX-PGE2”.

What about the “release of TNF-α” value (human monocytes [3]; ABA 0.1-10 μM) of the same compound?
The value was “significant increase”.

And the “Effects of ABA: TNF-α release” value (human monocytes [3]; Added ABA 5-50 μM)?
The value was “↑TNF-α release”.

And the “TNF-α release compromised by fluridone” value (human monocytes [3]; [10])?
Its value is “partly restores”.

What about the “production/release of nitric oxide (NO)” value (human granulocytes; ABA 0.2-20 μM) of the same compound?
The value was “stimulation; also recorded: ↑NO release”.

And the “release of PGE2 (COX-PGE2)” value ([4]; ABA 0.1-10 μM)?
Its value is “increased release; also recorded: ↑COX-PGE2”.

And the “release of TNF-α” value ([5]; ABA 0.1-10 μM)?
Its value is “increased release; also recorded: ↑TNF-α release”.

What about the “TNF-α release compromised by fluridone” value [5, 10] of the same compound?
Its value is “partly restores”.

What about the stimulation of proliferation (human lymphocytes; ABA 50 to 500 μM, in the absence of other stimuli (PMA, PHA)) of the same compound?
Its stimulation of proliferation is 30%.

And the “Effects of ABA: proliferation” value (human lymphocytes; Added ABA 50-500 μM)?
Its value is “↑proliferation”.

What about the “restoration of the proliferative response” value (human lymphocytes; excess exogenous ABA 500 μM together with fluridone) of the same compound?
Its value is “approximately 40%”.

And the “release of NO” value ([6]; ABA 0.2-20 μM)?
The value was “increase; also recorded: ↑NO release”.

What about the “NO release compromised by fluridone” value [6, 10] of the same compound?
Its value is “partly restores”.

And the “increase of release of MCP-1” value (human monocytes [7]; ABA 0.1-10 μM)?
Its value is “approx. two-fold”.

What about the “Effects of ABA: MCP-1 release” value (human monocytes [7]; Added ABA 5-50 μM) of the same compound?
The value was “↑MCP-1 release”.

For `Cn1cc(-c2ccccc2)c(=O)c(-c2cccc(C(F)(F)F)c2)c1` [Fluridone, 1-methyl-3-phenyl-5-(α,α,α-trifluoro-m-tolyl)-4-pyridone], which “Effects of Fluridone: TNF-α release” value [1] is on record?
Its value is “↓TNF-α release”.

And the “Effects of Fluridone: COX-PGE2” value (human monocytes [2])?
The value was “↓COX-PGE2”.

What about the “LPS-stimulated PGE2 production” value (human monocytes [2]; fluridone 50 μM) of the same compound?
The value was “completely inhibits”.

And the “Effects of Fluridone: TNF-α release” value (human monocytes [3])?
The value was “↓TNF-α release”.

And the inhibition at 50 µM (human monocytes [3]; Homo sapiens, Monocyte, fluridone 50 μM, read-out: inhibition of LPS-induced TNF-α production)?
The inhibition at 50 µM was 90%.

What about the “Effects of Fluridone: fMLP-, ATP-, β-amyloid-induced NO release” value (human granulocytes) of the same compound?
The value was “↓fMLP-, ATP-, β-”.

What about the inhibition at 50 µM (human granulocytes; Homo sapiens, read-out: inhibition of NO release) of the same compound?
Its inhibition at 50 µM is about 80%.

What about the “Effects of Fluridone: COX-PGE2” value [4] of the same compound?
Its value is “↓COX-PGE2”.

What about the “LPS-stimulated PGE2 production” value ([4]; fluridone 50 μM) of the same compound?
Its value is “completely inhibits”.

And the “Effects of Fluridone: TNF-α release” value [5]?
The value was “↓TNF-α release”.

And the inhibition at 50 µM ([5]; Mus musculus, RAW264.7, fluridone 50 μM, read-out: inhibition of LPS-induced TNF-α production)?
The inhibition at 50 µM was 90%.

And the “toxicity on the cells (Trypan blue exclusion)” value [8]?
The value was “no toxicity”.

What about the “toxicity on the cells (Trypan blue exclusion)” value ([9]; human monocytes) of the same compound?
The value was “no toxicity”.

And the “percentage of viable cells (excluding Trypan blue) compared to controls” value ([9]; lymphocyte cultures)?
The value was “similar”.

And the “Effects of Fluridone: PMA-, LPS-, PHA-induced proliferation” value (human lymphocytes)?
Its value is “↓PMA-, LPS-,”.

And the inhibition at 50 µM (human lymphocytes; read-out: inhibition of PHA-induced cell proliferation)?
Its inhibition at 50 µM is 50%.

What about the inhibition at 50 µM (human lymphocytes; read-out: inhibition of PMA-induced cell proliferation) of the same compound?
Its inhibition at 50 µM is 90%.

And the “Effects of Fluridone: NO release” value [6]?
The value was “↓NO release”.

What about the “Effects of Fluridone: MCP-1 release” value (human monocytes [7]) of the same compound?
Its value is “↓MCP-1 release”.

What about the “release of MCP-1 by LPS-stimulated monocytes” value (human monocytes [7]; fluridone 50 μM) of the same compound?
The value was “almost completely inhibits”.
